Test results reported in patent US6680282B2 (priority 1997, dated 2004).

Experiments:
[1] = system: Pyricularia oryzae; assay: whole plant or invertebrate; type: in vivo; conditions: 100 ppm spray, rice seedling (Jikkoku) 4-leaf stage, lesion number on fourth leaf 6 days after inoculation
[2] = system: Cochlioborus miyabeanus; type: cell-based; conditions: 100 ppm in potato dextrose agar, 28 or 22° C., 48 hours
[3] = system: Botrytis cinerea; type: cell-based; conditions: 100 ppm in potato dextrose agar, 28 or 22° C., 48 hours
Experimental: (§1) Test for Antifungal Activity
(§2) A test compound dissolved in acetone was mixed in a potato dextrose agar medium (manufactured by Nissui Seiyaku K. K.) so that the final concentration of the test compound was 100 ppm and then poured in a Petri dish. To this Perti dish after the agar was completely solidified, a cylindrical section prepared by punching a mycelial colony of each of plant pathogenic fungi cultured in another Petri dish by means of a cork borer was inoculated and cultured at 28 or 22° C. 48 Hours after the inoculation, the diameter of the mycelial colony was determined. Control percentages were calculated by comparing the diameter of the mycelial colony in a treated area with that in an untreated area. And, antifungal effect was ranked according to the following criterion.
(§3) A; control percentage ≧80%
(§4) B; control percentage 50 to 79%
(§5) C; control percentage <50%

[4] = system: Glomerella cingalata; type: cell-based; conditions: 100 ppm in potato dextrose agar, 28 or 22° C., 48 hours
Experimental: as §1, §2, §3, §4, §5

[5] = system: Sclerotinia minor; type: cell-based; conditions: 100 ppm in potato dextrose agar, 28 or 22° C., 48 hours
Experimental: as §1, §2, §3, §4, §5

[6] = system: Fusarium oxysporum f. sp. lycopersici; type: cell-based; conditions: 100 ppm in potato dextrose agar, 28 or 22° C., 48 hours
Experimental: as §1, §2, §3, §4, §5

[7] = system: Rhizoctonia solani; type: cell-based; conditions: 100 ppm in potato dextrose agar, 28 or 22° C., 48 hours
Experimental: as §1, §2, §3, §4, §5

[8] = system: Verticillium aibo-atrum; type: cell-based; conditions: 100 ppm in potato dextrose agar, 28 or 22° C., 48 hours
Experimental: as §1, §2, §3, §4, §5

[9] = system: Gibberella fujikuroi; type: cell-based; conditions: 100 ppm in potato dextrose agar, 28 or 22° C., 48 hours
Experimental: as §1, §2, §3, §4, §5

[10] = system: Colletotrichum atramentarium; type: cell-based; conditions: 100 ppm in potato dextrose agar, 28 or 22° C., 48 hours
Experimental: as §1, §2, §3, §4, §5

[11] = system: Alternaria alternata Japanese pear pathotype; type: cell-based; conditions: 100 ppm in potato dextrose agar, 28 or 22° C., 48 hours
Experimental: as §1, §2, §3, §4, §5

[12] = system: Pyricularia oryzae; type: cell-based; conditions: 100 ppm in potato dextrose agar, 28 or 22° C., 48 hours
[13] = system: Sphaerotheca fuliginea; assay: Test for control effect against powdery mildew of Cucurbitaceae (spray on cucumber seedlings); type: in vivo; conditions: 200 ppm spray, cucumber first foliage leaf, 10 days after inoculation
Text: Test for Control Effect Against Powdery Mildew of Cucurbitaceae
A spray liquid comprising a test compound whose concentration was adjusted to be 200 ppm by dilution with water was sprayed to a cucumber grown in a vinyl pot of 3 cm in diameter when its first foliage leaf was developed. The air-dried cucumber seedling was inoculated with a conidium suspension of Sphaerotheca fuliginea. Thereafter, the cucumber seedling was transferred in an air-conditioned greenhouse. 10 Days after the inoculation, the disease severity was observed. The protective value was calculated by comparing the disease severity in a treated area with that in an untreated area. Then, control effect was ranked according to the following criterion.
B; protective value 50 to 79%

| Structure (SMILES) | rank (control effect, protective value from lesion number) [1] | rank (antifungal effect, control percentage of mycelial colony diameter) [2] | rank (antifungal effect, control percentage of mycelial colony diameter) [3] | rank (antifungal effect, control percentage of mycelial colony diameter) [4] | rank (antifungal effect, control percentage of mycelial colony diameter) [5] | rank (antifungal effect, control percentage of mycelial colony diameter) [6] | rank (antifungal effect, control percentage of mycelial colony diameter) [7] | rank (antifungal effect, control percentage of mycelial colony diameter) [8] | rank (antifungal effect, control percentage of mycelial colony diameter) [9] | rank (antifungal effect, control percentage of mycelial colony diameter) [10] | rank (antifungal effect, control percentage of mycelial colony diameter) [11] | rank (antifungal effect, control percentage of mycelial colony diameter) [12] | rank (control effect, protective value from disease severity) [13] |
| --- | --- | --- | --- | --- | --- | --- | --- | --- | --- | --- | --- | --- | --- |
| CCCCc1ccc2nc(C)c(C)c(O)c2c1 [Compound No. 28] | A (protective value ≧80%) | C (control percentage <50%) | C (control percentage <50%) | B (control percentage 50 to 79%) | C (control percentage <50%) | C (control percentage <50%) | C (control percentage <50%) | A (control percentage ≧80%) | C (control percentage <50%) | B (control percentage 50 to 79%) | C (control percentage <50%) | B (control percentage 50 to 79%) | – |
| CCCCc1ccc2nc(C)c(C)c(OC(C)=O)c2c1 [Compound No. 29] | A (protective value ≧80%) | B (control percentage 50 to 79%) | B (control percentage 50 to 79%) | A (control percentage ≧80%) | C (control percentage <50%) | B (control percentage 50 to 79%) | C (control percentage <50%) | A (control percentage ≧80%) | B (control percentage 50 to 79%) | B (control percentage 50 to 79%) | C (control percentage <50%) | A (control percentage ≧80%) | B (protective value 50 to 79%) |
| CCCCc1ccc2nc(C)c(C)c(OC(=O)C3CC3)c2c1 [compound 31] | A (protective value ≧80%) | A (control percentage ≧80%) | A (control percentage ≧80%) | A (control percentage ≧80%) | B (control percentage 50 to 79%) | A (control percentage ≧80%) | C (control percentage <50%) | A (control percentage ≧80%) | A (control percentage ≧80%) | A (control percentage ≧80%) | A (control percentage ≧80%) | A (control percentage ≧80%) | – |
